Experimental data: ChEMBL document CHEMBL1201862, “PubChem BioAssay data set” (2004)
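Following 48 hours of exposure in 96-well plates, responses at five concentrations were used to interpolate endpoints linearly. At the GI50, growth is halved.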 Active and inactive are the calls of the source. Cut-off read from the data, not from the text of the source: active = GI50 up to about 1.1 µM and inactive = higher.

Columns and labels:
Assay in all cases: NCI-60 cell line screen, 48 h
786-0 = tested on: 786-0
A498 = tested on: A498
A549 = tested on: A549
ACHN = tested on: ACHN
BT-549 = tested on: BT-549
CAKI-1 = tested on: CAKI-1
CCRF-CEM = tested on: CCRF-CEM
DU-145 = tested on: DU-145
EKVX = tested on: EKVX
HCC 2998 = tested on: HCC 2998
HCT-116 = tested on: HCT-116
HCT-15 = tested on: HCT-15
HL-60 = tested on: HL-60
HOP-62 = tested on: HOP-62
HOP-92 = tested on: HOP-92
HT-29 = tested on: HT-29
Hs-578T = tested on: Hs-578T
IGROV-1 = tested on: IGROV-1
K562 = tested on: K562
KM12 = tested on: KM12
LOX IMVI = tested on: LOX IMVI
M14 = tested on: M14
MCF7 = tested on: MCF7
MDA-MB-231 = tested on: MDA-MB-231
MDA-MB-435 = tested on: MDA-MB-435
MDA-N = tested on: MDA-N
Malme-3M = tested on: Malme-3M
NCI-H23 = tested on: NCI-H23
NCI-H460 = tested on: NCI-H460
NCI-H522 = tested on: NCI-H522
NCI/ADR-RES = tested on: NCI/ADR-RES
OVCAR-3 = tested on: OVCAR-3
OVCAR-4 = tested on: OVCAR-4
OVCAR-5 = tested on: OVCAR-5
OVCAR-8 = tested on: OVCAR-8
RPMI-8226 = tested on: RPMI-8226
RXF 393 = tested on: RXF 393
SF-268 = tested on: SF-268
SF-295 = tested on: SF-295
SK-MEL-28 = tested on: SK-MEL-28
SK-MEL-2 = tested on: SK-MEL-2
SK-MEL-5 = tested on: SK-MEL-5
SK-OV-3 = tested on: SK-OV-3
SN12C = tested on: SN12C
SNB-19 = tested on: SNB-19
SNB-75 = tested on: SNB-75
SR = tested on: SR
SW-620 = tested on: SW-620
T47D = tested on: T47D
TK-10 = tested on: TK-10
U-251 = tested on: U-251
UACC-257 = tested on: UACC-257
UACC-62 = tested on: UACC-62
UO-31 = tested on: UO-31
COLO 205 = tested on: COLO 205
MOLT-4 = tested on: MOLT-4
NCI-H226 = tested on: NCI-H226
PC-3 = tested on: PC-3
SF-539 = tested on: SF-539

In the case of `CC(C)=CC1C(C(=O)Oc2ccccc2C(C)C)C1(C)C` (configuration not stated), the GI50 (786-0) is reported as 19.9 µM (inactive), the GI50 (A498) is reported as 19.7 µM (inactive) and the GI50 (A549) is reported as 31.1 µM (inactive). For the same compound, the GI50 (ACHN) was 18.4 µM (inactive), the GI50 (BT-549) was 30 µM (inactive) and the GI50 (CAKI-1) was 32.4 µM (inactive). The GI50 (CCRF-CEM) was 22.8 µM (inactive), the GI50 (DU-145) was 40.5 µM (inactive) and the GI50 (EKVX) was 17.3 µM (inactive). For the same compound, the GI50 (HCC 2998) was 17.8 µM (inactive), the GI50 (HCT-116) was 20.8 µM (inactive) and the GI50 (HCT-15) was 21 µM. For the same compound, the GI50 (HL-60) was 19.1 µM (inactive), the GI50 (HOP-62) was 27.9 µM (inactive) and the GI50 (HOP-92) was 25.5 µM (inactive). The GI50 (HT-29) was 16.4 µM (inactive), the GI50 (Hs-578T) was 39.9 µM (inactive) and the GI50 (IGROV-1) was 29.8 µM (inactive). For the same compound, the GI50 (K562) was 25.8 µM (inactive), the GI50 (KM12) was 18.1 µM (inactive) and the GI50 (LOX IMVI) was 17.7 µM (inactive). For the same compound, the GI50 (M14) was 31.6 µM (inactive), the GI50 (MCF7) was 19.8 µM (inactive) and the GI50 (MDA-MB-231) was 22.9 µM (inactive). The GI50 (MDA-MB-435) was 30.8 µM (inactive), the GI50 (MDA-N) was 26.4 µM (inactive) and the GI50 (Malme-3M) was 16.3 µM (inactive). The GI50 (NCI-H23) was 23.8 µM (inactive), the GI50 (NCI-H460) was 22.4 µM (inactive) and the GI50 (NCI-H522) was 16.6 µM (inactive). The GI50 (NCI/ADR-RES) was 30 µM (inactive), the GI50 (OVCAR-3) was 17.8 µM (inactive) and the GI50 (OVCAR-4) was 52 µM (inactive). The GI50 (OVCAR-5) was 27.1 µM (inactive), the GI50 (OVCAR-8) was 31.7 µM (inactive) and the GI50 (RPMI-8226) was 19.3 µM (inactive). The GI50 (RXF 393) was 16.9 µM (inactive), the GI50 (SF-268) was 35.5 µM (inactive) and the GI50 (SF-295) was 17.7 µM (inactive). For the same compound, the GI50 (SK-MEL-28) was 39.1 µM (inactive), the GI50 (SK-MEL-2) was 17.1 µM (inactive) and the GI50 (SK-MEL-5) was 18.2 µM (inactive). For the same compound, the GI50 (SK-OV-3) was 31.6 µM (inactive), the GI50 (SN12C) was 20.5 µM (inactive) and the GI50 (SNB-19) was 34.3 µM (inactive). For the same compound, the GI50 (SNB-75) was 21.3 µM (inactive), the GI50 (SR) was 20.9 µM (inactive) and the GI50 (SW-620) was 24.3 µM (inactive). For the same compound, the GI50 (T47D) was 19.8 µM (inactive), the GI50 (TK-10) was 32.8 µM (inactive) and the GI50 (U-251) was 16.7 µM (inactive). For the same compound, the GI50 (UACC-257) was 19.5 µM (inactive), the GI50 (UACC-62) was 36.7 µM (inactive) and the GI50 (UO-31) was 17.7 µM (inactive).

With `NC(Cc1ccccc1)C(=O)O` (stereo not drawn) [DL-PHENYLALANINE] the GI50 (786-0) was > 100 µM (inactive), the GI50 (A498) was > 100 µM (inactive) and the GI50 (A549) was > 100 µM (inactive). For the same compound, the GI50 (ACHN) was > 100 µM (inactive), the GI50 (BT-549) was > 100 µM (inactive) and the GI50 (CAKI-1) was > 100 µM (inactive). The GI50 (CCRF-CEM) was > 100 µM (inactive), the GI50 (COLO 205) was > 100 µM (inactive) and the GI50 (DU-145) was > 100 µM (inactive). The GI50 (EKVX) was > 100 µM (inactive), the GI50 (HCC 2998) was > 100 µM (inactive) and the GI50 (HCT-116) was > 100 µM (inactive). For the same compound, the GI50 (HCT-15) was over 100 µM, the GI50 (HL-60) was > 100 µM (inactive) and the GI50 (HOP-62) was > 100 µM (inactive). The GI50 (HOP-92) was > 100 µM (inactive), the GI50 (HT-29) was > 100 µM (inactive) and the GI50 (Hs-578T) was > 100 µM (inactive). For the same compound, the GI50 (IGROV-1) was > 100 µM (inactive), the GI50 (K562) was > 100 µM (inactive) and the GI50 (KM12) was > 100 µM (inactive). For the same compound, the GI50 (LOX IMVI) was > 100 µM (inactive), the GI50 (M14) was > 100 µM (inactive) and the GI50 (MCF7) was > 100 µM (inactive). The GI50 (MDA-MB-231) was > 100 µM (inactive), the GI50 (MDA-MB-435) was > 100 µM (inactive) and the GI50 (MDA-N) was > 100 µM (inactive). For the same compound, the GI50 (MOLT-4) was > 100 µM (inactive), the GI50 (Malme-3M) was > 100 µM (inactive) and the GI50 (NCI-H226) was > 100 µM (inactive). For the same compound, the GI50 (NCI-H23) was > 100 µM (inactive), the GI50 (NCI-H460) was > 100 µM (inactive) and the GI50 (NCI-H522) was > 100 µM (inactive). The GI50 (NCI/ADR-RES) was > 100 µM (inactive), the GI50 (OVCAR-3) was > 100 µM (inactive) and the GI50 (OVCAR-4) was > 100 µM (inactive). For the same compound, the GI50 (OVCAR-5) was > 100 µM (inactive), the GI50 (OVCAR-8) was > 100 µM (inactive) and the GI50 (PC-3) was > 100 µM (inactive). For the same compound, the GI50 (RPMI-8226) was > 100 µM (inactive), the GI50 (RXF 393) was > 100 µM (inactive) and the GI50 (SF-268) was > 100 µM (inactive). For the same compound, the GI50 (SF-295) was > 100 µM (inactive), the GI50 (SF-539) was > 100 µM (inactive) and the GI50 (SK-MEL-28) was > 100 µM (inactive). For the same compound, the GI50 (SK-MEL-2) was > 100 µM (inactive), the GI50 (SK-MEL-5) was > 100 µM (inactive) and the GI50 (SK-OV-3) was > 100 µM (inactive). The GI50 (SN12C) was > 100 µM (inactive), the GI50 (SNB-19) was > 100 µM (inactive) and the GI50 (SNB-75) was > 100 µM (inactive). For the same compound, the GI50 (SW-620) was > 100 µM (inactive), the GI50 (T47D) was > 100 µM (inactive) and the GI50 (TK-10) was > 100 µM (inactive). For the same compound, the GI50 (U-251) was > 100 µM (inactive), the GI50 (UACC-257) was > 100 µM (inactive) and the GI50 (UACC-62) was > 100 µM (inactive). For the same compound, the GI50 (UO-31) was > 100 µM (inactive).
